Source: patent US8883856B2, “Compositions and methods for the treatment of inflammatory diseases using topoisomerase inhibitors” (priority 2000, dated 2014)

Key:
neutrophils [1] = assay: Neutrophil apoptosis, agarose gel DNA laddering; type: cell-based, human
Source text: The inflammation associated with many forms of arthritis is thought to arise from the presence of large numbers of immune cells, such as neutrophils, in the synovial joints of humans. The extended inflammation associated with crystal induced arthritis arises from the interaction of neutrophils with crystals in the synovial joint. One reason the extended duration of the inflammation in this disease may be due to the inhibition of neutrophil apoptosis by crystals. This inhibition may result in the neutrophils remaining in the joint for extended periods. Compounds that overcome this crystal induced suppression of neutrophil apoptosis therefore allow the more rapid clearance of these cells from the joint with the appropriate abatement of inflammation. The process of apoptosis involves the endonuclease driven cleavage of DNA into fragments which may be visualized as a ladder of bands in an agarose gel electrophoresis experiment. Other assays that may be used include caspase 3 quantitation or measurements of cytoplasmic DNA concentration. […] Agents that inhibit caspase activation levels or reduce cytoplasmic DNA are pro-survival (potentially inflammatory) and agents that promote are pro-apoptotic and anti-inflammatory. The use of these methods and their role in neutrophil affected inflammation is described in detail in Tudan et al. J Rheumatol. 27 p 2463-72. 2000. […]

neutrophils [2] = assay: Cytoplasmic DNA fragmentation in neutrophils (Cell death detection ELISA); type: cell-based, human
Source text: The inflammation associated with many forms of arthritis is thought to arise from the presence of large numbers of immune cells, such as neutrophils, in the synovial joints of humans. The extended inflammation associated with crystal induced arthritis arises from the interaction of neutrophils with crystals in the synovial joint. One reason the extended duration of the inflammation in this disease may be due to the inhibition of neutrophil apoptosis by crystals. This inhibition may result in the neutrophils remaining in the joint for extended periods. Compounds that overcome this crystal induced suppression of neutrophil apoptosis therefore allow the more rapid clearance of these cells from the joint with the appropriate abatement of inflammation. The process of apoptosis involves the endonuclease driven cleavage of DNA into fragments which may be visualized as a ladder of bands in an agarose gel electrophoresis experiment. Other assays that may be used include caspase 3 quantitation or measurements of cytoplasmic DNA concentration. […] Agents that inhibit caspase activation levels or reduce cytoplasmic DNA are pro-survival (potentially inflammatory) and agents that promote are pro-apoptotic and anti-inflammatory. The use of these methods and their role in neutrophil affected inflammation is described in detail in Tudan et al. J Rheumatol. 27 p 2463-72. 2000.
Methods: Agarose gel banding/laddering of 180 base pairs: Neutrophils were separated from fresh human blood by standard methods (dextran sedimentation and ficoll paque centrifugation) and suspended in buffer at a concentration of 1×10^6 cells/ml. The cells were then incubated with crystals of calcium pyrophosphate dihydrate (CPPD) for 1 hours at 37° C. The cells were then incubated with or without camptothecin (0.1 uM) for 4 hours at 37° C. Neutrophil aliquots (1×10^6 cells) from different conditions were resuspended in 480 μl of lysis buffer (0.6% SDS, 10 mM Tris, 1 mM EDTA (pH 7.0)) and after vigorous mixing were allowed to sit on ice for 20 min after addition of 120 μl of 5M NaCl. In caspase 3 and DNA fragmentation assays a milder detergent (Triton) was used to lyse only the plasma membrane of the cells so that cytoplasmic contents (caspase 3 or DNA fragments) could be assayed. Samples were sedimented at 14,000 rpm at 4° C. for 20 min. The pellet was dried and resuspended in phenol:chloroform. Four hundred fifty μl of the upper phase was added to a new tube, which was then charged with 950 μl of […] and held at −20° C. for 10 min. The DNA was sedimented at 14,000 rpm (4° C.) and carefully washed in 75% ethanol without disturbing the pellet. The DNA was dried at 37° C. and then resuspended in 20 μl sample buffer (50% TBE with 1 μl of 1 ng/ml RNase A (Pharmacia)). […]

[3] = Perivascular injection of polymeric paste at the rat carotid artery; type: in vivo, Wistar rats; details: 1% loading in 40% Triblock / 60% MePEG350 paste, 0.1 to 0.2 ml
Source text: Wistar rats weighing 400 g to 500 g were anesthetized with halothane. A vertical incision was made over the trachea and the left external carotid artery was exposed. Connective tissue around the left common carotid artery was left untouched. Two ligatures were placed around the external carotid artery and an arteriotomy was made between them. A 2 French Fogarty balloon was introduced into the external carotid artery and pushed into the left common carotid artery and the balloon was inflated with saline. The balloon was passed up and down the entire length of the carotid artery three times to stretch the vessel and denude the endothelium. The balloon was removed and the ligatures tied off on the external carotid artery. Camptothecin (1% loading) in a polymeric paste (40% Triblock (Angiotech pharmaceuticals) and 60% Methoxypolyethylene glycol (MePEG350)) or the carrier paste alone was injected through a 24 G angiocatheter between a distal segment of the common carotid artery and the surrounding connective tissue. Typically, 0.1 to 0.2 ml of paste was applied around the artery in 4 injections in order to cover the whole circumference of the vessel on a length of approximately 1 cm. The wound was then closed and the animals recovered.

neutrophils [4] = assay: Neutrophil degranulation (myeloperoxidase release); type: cell-based, human; details: CPPD crystals and fMLP
Protocol: Eppendorf tubes containing either 25 mg of CPPD or 1 uM fMLP (with 0.5 uM cytochalasin B) were maintained at 37° C. To the tubes were added 0.5 mL of cells at 37° C. followed by shaking to initiate the reactions. At appropriate times, tubes were centrifuged at 10,000× g for 10 s and 0.4 mL of supernatant was stored at −20° C. for later assay. Myeloperoxidase (MPO) activity was measured by the increase in absorbance at 450 nm that accompanies the oxidation of o-dianisidine. Dianisidine (7.8 mg) was dissolved in 100 mL of 0.1 M citrate buffer, pH 5.5 and to a 1 mL cuvette were added 0.89 mL of the dianisidine solution, followed by […], […] and […]. MPO activity was determined from the change in absorbance (450 nm) per minute, (ΔA450), using the following relationship: Dianisidine oxidation (nmol/min)=50 ΔA450

neutrophils [5] = assay: Neutrophil superoxide anion generation (cytochrome c reduction); type: cell-based, human; details: CPPD crystals or fMLP
Protocol: Superoxide anion concentrations were measured using the superoxide dismutase inhibitable reduction of cytochrome c assay. Twenty five mg of crystals or fMLP (final concentration 1 uM with cytochalasin B at 0.5 uM) were placed in 1.5 mL capped Eppendorf tubes and warmed to 37° C. To the tubes were added 0.5 mL of cells at 37° C. and ferricytochrome c (horse heart, type 3) (final concentration 1.2 mg/mL) and the cells were activated by shaking the capped tubes. At appropriate times, tubes were centrifuged at 10,000×g for 10 seconds and the supernatant collected for spectrophotometric assay at 550 nm. Control tubes were set up under the same conditions with the inclusion of superoxide dismutase at 600 units per mL. Plumbagin inhibited the generation of superoxide anions from neutrophils activated by both CPPD crystals or fMLP as shown in FIG. 3.

## CC[C@@]1(O)C(=O)OCc2c1cc1n(c2=O)Cc2cc3ccccc3nc2-1 [camptothecin]
Neutrophils [1]; CPPD crystals 1 hour, then drug 0.1 uM 4 hours
  apoptosis in neutrophils first incubated with CPPD crystals: extensive apoptosis
Neutrophils [1]; drug alone, 0.1 uM, 4 hours
  DNA laddering (apoptosis) in neutrophils: extensive DNA laddering
Neutrophils [2]
  cytoplasmic DNA fragments in neutrophils: increased the cytoplasmic levels of DNA fragments
[3]
  adverse effects of perivascular paste injection: no adverse effects noted in any animal

## COc1cccc2c1C(=O)c1c(O)c3c(c(O)c1C2=O)C[C@@](O)(C(=O)CO)C[C@@H]3O[C@H]1C[C@H](N)[C@H](O)[C@H](C)O1 [doxorubicin]
Neutrophils [2]
  cytoplasmic DNA fragments in neutrophils: significant increase in cytoplasmic DNA

## COc1cc([C@@H]2c3cc4c(cc3[C@@H](O[C@@H]3O[C@@H]5CO[C@@H](C)O[C@H]5[C@H](O)[C@H]3O)[C@H]3COC(=O)[C@H]23)OCO4)cc(OC)c1O [etoposide]
Neutrophils [2]
  cytoplasmic DNA fragments in neutrophils: significant increase in cytoplasmic DNA

## CC1=CC(=O)c2c(O)cccc2C1=O [plumbagin]
Neutrophils [4]
  neutrophil degranulation (myeloperoxidase release): inhibited
Neutrophils [5]
  generation of superoxide anions from activated neutrophils: inhibited
